As a reminder, the bioavailability is dose-corrected exposure relative to a reference, in per cent.

This series is described as follows: Pharmacokinetic evaluation IV bolus and oral (bioavailability) in ICR mice. The series is classed as in vivo. The note with it: mouse, plasma, IV 5 mg/kg and PO 25 mg/kg, read-out: Bioavailability (% F). The method, then: The pharmacokinetics properties of drugs are investigated in ICR mice following an intravenous (IV) bolus and oral (PO) doses of drug at 5 mg/kg and 25 mg/kg respectively. Blood samples are collected at predetermined times and the plasma separated. Plasma is separated from the blood samples collected at 5, 15 and 30 minutes and 1, 2, 4, 8 and 24 hours post-dose.
Drug levels are quantified by the LC/MS/MS method described below. Noncompartmental pharmacokinetic analysis is applied for intravenous administration. A linear trapezoidal rule is used to compute AUC(0-24) or AUC(0-8). The terminal t1/2 and C0 are calculated using the last three and the first three data points, respectively
Bioanalysis is performed using a Quattro Micro LC/MS/MS instrument in the MRM detection mode, with an internal standard (IS). Briefly, 15 μL plasma samples are prepared for analysis using protein precipitation with 120 μL of acetonitrile. The supernatants are transferred into a 96 well plate and subjected to LC-MS/MS analysis using a PHENOMENEX® Polar-RP HPLC column. The mobile phases are 10 mM NH4HCO3 in water (Solution-A) and 10 mM NH4HCO3 in methanol (Solution-B). The column is initially equilibrated with 25% Solution-B and followed with 100% Solution B over 5 minutes. The method has a dynamic range from 1 to 10,000 ng/mL. Quantitation of the analytes is performed in the batch mode with two bracketing calibration curves according to the bioanalytical sample list.
As to `CN1CCCC1CCNC(=O)c1c(=O)c2cc(F)c(N3CCOCC3)nc2n2c3ccccc3n(C)c12` (stereo not shown), the bioavailability worked out at 10.4%.

As to `O=C(NCCN1CCCC1)c1c(=O)c2ccc(N3CCOCC3)nc2n2c1sc1ccccc12`, the bioavailability amounted to 10.7%.

On to `CN1CCCC1CCNC(=O)c1c(=O)c2cc(F)c(N3CCOCC3)nc2n2c1sc1ccccc12` (stereo not shown), for which the bioavailability stood at 22.4%.

Regarding `CN1CCN(C(=O)c2c(=O)c3cc(F)c(N4CCOCC4)nc3n3c2sc2ccccc23)CC1`, the bioavailability amounted to 30.3%.

Consider `O=C(NCCNCC1CCCO1)c1c(=O)c2ccc(N3CCOCC3)nc2n2c1sc1ccccc12` (stereo not shown), for which the bioavailability came out at 2%.

With `O=C(NCCN1CC=CC1)c1c(=O)c2ccc(N3CCOCC3)nc2n2c1sc1ccccc12`, the bioavailability was determined as 27.5%.

As to `Cn1cncc1CNC(=O)c1c(=O)c2ccc(N3CCOCC3)nc2n2c1sc1ccccc12`, the bioavailability was found to be 12.4%.

Regarding `O=C(c1c(=O)c2ccc(N3CCOCC3)nc2n2c1sc1ccccc12)N1CCN(c2ncccn2)CC1`, the bioavailability was found to be 31.1%.

Take `Cn1ccnc1CNC(=O)c1c(=O)c2ccc(N3CCOCC3)nc2n2c1sc1ccccc12`: the bioavailability amounted to 17.9%.

Turning to `Cn1ccnc1CNC(=O)c1c(=O)c2cc(F)c(N3CCOCC3)nc2n2c1sc1ccccc12`, the bioavailability turned out to be 15.8%.

For the molecule `O=C(NNC1=NCCN1)c1c(=O)c2cc(F)c(N3CCOCC3)nc2n2c1sc1ccccc12`, the bioavailability came to 0.1%.

Turning to `CN1CCN(c2ccc3c(=O)c(C(=O)NCc4ccccn4)c4sc5ccccc5n4c3n2)CC1`, the bioavailability is 41.4%.

`O=C(NCCNC1CC1)c1c(=O)c2ccc(N3CCOCC3)nc2n2c1sc1ccccc12` [drawing 604]: the bioavailability is 43.3%.

Values taken from US8853234B2, “Quinolone analogs and methods related thereto” (Senhwa Biosciences, Inc., priority 2007, dated 2014).
